From patent US12012403B2, “Aryl sulfonyl compounds as CCR6 inhibitors” (CHEMOCENTRYX, INC., priority 2021, dated 2024)

biological target: T1, human CCR6 (Homo sapiens, UniProt P51684); assay: Migration (chemotaxis) assay, hCCR6-transfected Ba/F3 cells toward CCL20; format: cell-based; conditions: hCCR6-transfected Ba/F3 cells in human serum; recombinant human CCL20 10 nM; 37° C. 45 minutes; read-out: Potency (IC50 value in the migration assay)
T1 construct: expressed in transfected cells; host or cells: Ba/F3 cells (murine pro-B line), hCCR6-transfected, CMV promoter, sodium butyrate induction
T1 sequence (P51684 1-374): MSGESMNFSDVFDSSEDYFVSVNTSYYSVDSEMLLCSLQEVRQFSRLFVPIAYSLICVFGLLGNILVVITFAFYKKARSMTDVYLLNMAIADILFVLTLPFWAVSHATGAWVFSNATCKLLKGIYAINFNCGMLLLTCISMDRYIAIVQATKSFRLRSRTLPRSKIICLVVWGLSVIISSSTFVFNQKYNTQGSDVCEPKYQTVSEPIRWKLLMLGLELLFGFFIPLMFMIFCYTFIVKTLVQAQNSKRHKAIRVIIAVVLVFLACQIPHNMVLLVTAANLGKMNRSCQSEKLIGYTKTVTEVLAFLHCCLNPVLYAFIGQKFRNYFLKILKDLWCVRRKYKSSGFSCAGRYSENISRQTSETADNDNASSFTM
In short: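 Ba/F3 cells stably transfected with human CCR6 (CMV promoter), pre-induced 24 hr with sodium butyrate, suspended at 4 million/ml in human serum with test compound serially diluted from 10 μM final. Migration through 5-μm polycarbonate membrane toward 10 nM CCL20 (EC50) for 45 min at 37 °C; migrated cells quantified by CyQUANT fluorescence.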

SMILES	IC50
O=S(=O)(c1ccc(N2CCC3(CC2)CC(O)C3)cc1)N1CCC(Nc2ccc(C(F)(F)F)cn2)CC1 [Example 1.158]	5 to 100 nM
N#Cc1c(N)[nH]c2ccc(-c3ccc(S(=O)(=O)[C@H]4CC[C@H](Nc5ccc(C(F)(F)F)cn5)CC4)cc3)cc12 [Example 1.070]	< 5 nM
O=C1NC(=O)C2(CCN(c3ccc(S(=O)(=O)N4CCC(Nc5ccc(C(F)(F)F)cn5)CC4)cc3)CC2)N1 [Example 1.151]	< 5 nM
NC(=O)c1cc(-c2ccc(S(=O)(=O)N3CCC(Nc4ccc(C(F)(F)F)cn4)CC3)cc2)cc2c1NC(=O)C2 [Example 1.005]	< 5 nM
CC(C)(C)OC(=O)N1CC=C(c2ccc(S(=O)(=O)N3CCC(Nc4ccc(C(F)(F)F)cn4)CC3)cc2)CC1 [Example 1.234]	5 to 100 nM
Nc1n[nH]c2ncc(-c3ccc(S(=O)(=O)N4CCC(Nc5ccc(C(F)(F)F)cn5)CC4)cc3)cc12 [Example 1.068]	< 5 nM
NC(=O)N[C@H]1CCN(c2ccc(S(=O)(=O)N3CCC(Nc4ccc(C(F)(F)F)cn4)CC3)cc2)C1 [Example 1.190]	100 to 10000 nM
COC(=O)c1cc(-c2ccc(S(=O)(=O)N3CCC(Nc4ccc(C(F)(F)F)cn4)CC3)cc2)cc2c1NC(=O)C2 [Example 1.027]	< 5 nM
N#Cc1cn(CCO)c2ncc(-c3ccc(S(=O)(=O)N4CCC(Nc5ccc(C(F)(F)F)cn5)CC4)cc3)cc12 [Example 1.029]	< 5 nM
NC(=O)N[C@H]1CCCN(c2ccc(S(=O)(=O)N3CCC(Nc4ccc(C(F)(F)F)cn4)CC3)cc2)C1 [Example 1.191]	100 to 10000 nM
NC(=O)[C@H]1[C@@H]2CN(c3ccc(S(=O)(=O)N4CCC(Nc5ccc(C(F)(F)F)cn5)CC4)cc3)C[C@@H]21 [Example 1.162]	100 to 10000 nM
CC1(O)CCN(c2ccc(S(=O)(=O)N3CCC(Nc4ccc(C(F)(F)F)cn4)CC3)cc2)CC1 [Example 1.182]	5 to 100 nM
NC(=O)c1cnc2ccc(-c3ccc(S(=O)(=O)N4CCC(Nc5ccc(C(F)(F)F)cn5)CC4)cc3)cn12 [Example 1.085]	< 5 nM
NC(=O)N1CCCN(c2ccc(S(=O)(=O)N3CCC(Nc4ccc(C(F)(F)F)cn4)CC3)cc2)CC1 [Example 1.203]	5 to 100 nM
CC(=O)N1CCC(c2ccc(S(=O)(=O)N3CCC(Nc4ccc(C(F)(F)F)cn4)CC3)cc2)CC1 [Example 1.184]	5 to 100 nM
NC(=O)C1CC12CCN(c1ccc(S(=O)(=O)N3CCC(Nc4ccc(C(F)(F)F)cn4)CC3)cc1)CC2 (centres unmarked) [Example 1.137]	100 to 10000 nM

Next, values leading:

IC50	SMILES
5 to 100 nM	O=C1CCc2ccc(-c3ccc(S(=O)(=O)N4CCC(Nc5ccc(C(F)(F)F)cn5)CC4)cc3)cc2N1 [Example 1.047]
< 5 nM	O=C1NCc2cc(-c3ccc(S(=O)(=O)N4CCC(Nc5ccc(C(F)(F)F)cn5)CC4)cc3)ccc21 [Example 1.117]
100 to 10000 nM	O=S(=O)(c1ccc(-c2ccc3c(c2)CNC3)cc1)N1CCC(Nc2ccc(C(F)(F)F)cn2)CC1 [Example 1.058]
< 5 nM	N#Cc1c[nH]c2ccc(-c3ccc(S(=O)(=O)N4CCC(Nc5ccc(C(F)(F)F)cn5)CC4)cc3)cc12 [Example 1.114]
5 to 100 nM	N#Cc1cc2ccc(-c3ccc(S(=O)(=O)N4CCC(Nc5ccc(C(F)(F)F)cn5)CC4)cc3)cc2[nH]1 [Example 1.079]
5 to 100 nM	N=[S@](=O)(c1ccc(-c2ccc3[nH]cnc3c2)cc1)N1CCC(Nc2ccc(C(F)(F)F)cc2)CC1 [Example 1.104]
5 to 100 nM	O=S(=O)(c1ccc(-c2ccc3[nH]nc(C(F)(F)F)c3c2)cc1)N1CCC(Nc2ccc(C(F)(F)F)cn2)CC1 [Example 1.087]
< 5 nM	O=C1Nc2ccc(-c3ccc(S(=O)(=O)N4CCC(Nc5ccc(C(F)(F)F)cn5)CC4)cc3)cc2C12CC2 [Example 1.051]
< 5 nM	O=C1NCCc2cc(-c3ccc(S(=O)(=O)N4CCC(Nc5ccc(C(F)(F)F)cn5)CC4)cc3)ccc21 [Example 1.075]
5 to 100 nM	CC1(C)Oc2cc(-c3ccc(S(=O)(=O)N4CCC(Nc5ccc(C(F)(F)F)cn5)CC4)cc3)ccc2NC1=O [Example 1.019]
